Data on two compounds can be found in publication PMC7658267, “Effects of CYP46A1 Inhibition on Long-Term-Depression in Hippocampal Slices ex vivo and 24S-Hydroxycholesterol Levels in Mice in vivo” (Frontiers in Molecular Neuroscience, 2020).

The target of assay [1] is T1, CYP46A1 (Homo sapiens, UniProt Q9Y6A2). Kind of assay: recombinant human CYP46A1 microsomes, cholesterol to 24-hydroxycholesterol, LC-MS/MS ([…] with testosterone as substrate). Type of assay: biochemical.
Assay [2] has as its target T1, CYP46A1. Briefly: turnover to 24-hydroxycholesterol by human CYP46A1 microsomes, LC-MS/MS. Type of assay: biochemical.

T1 sequence (Q9Y6A2 whole entry): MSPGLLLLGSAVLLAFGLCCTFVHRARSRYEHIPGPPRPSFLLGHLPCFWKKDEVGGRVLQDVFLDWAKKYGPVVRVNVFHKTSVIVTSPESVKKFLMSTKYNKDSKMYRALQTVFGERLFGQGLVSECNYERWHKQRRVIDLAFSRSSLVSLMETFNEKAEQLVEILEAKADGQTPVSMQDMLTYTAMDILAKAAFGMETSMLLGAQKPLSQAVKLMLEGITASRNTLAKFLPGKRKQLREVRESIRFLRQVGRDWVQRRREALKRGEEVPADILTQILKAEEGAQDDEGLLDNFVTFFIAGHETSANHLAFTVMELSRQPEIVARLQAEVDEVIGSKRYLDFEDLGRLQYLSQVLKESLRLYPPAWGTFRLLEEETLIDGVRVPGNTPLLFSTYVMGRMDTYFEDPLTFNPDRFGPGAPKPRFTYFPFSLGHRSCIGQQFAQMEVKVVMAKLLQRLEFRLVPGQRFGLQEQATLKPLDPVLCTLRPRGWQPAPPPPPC

For orientation: IC50 means the concentration that gives 50% inhibition. For `C[C@@H](c1ncncc1F)[C@](O)(Cn1cncn1)c1ccc(F)cc1F` [Voriconazole], the half-inhibitory concentration (IC50) at CYP46A1 [1] was determined as 12.2 µM. For the compound `CC(C)CCC[C@@H](C)[C@H]1CC[C@H]2[C@@H]3CC=C4C[C@@H](O)CC[C@]4(C)[C@H]3CC[C@]12C` [cholesterol], on CYP46A1 [2], the “turnover to 24-hydroxycholesterol by human CYP46A1 microsomes, LC-MS/MS” value is recorded as “We also developed an in vitro assay using cholesterol as a substrate”.
